Assay results: US20070190145A1, “DRUG DELIVERY SYSTEMS COMPRISING WEAKLY BASIC SELECTIVE SEROTONIN 5-HT3 BLOCKING AGENT AND ORGANIC ACIDS” (EURAND, INC., priority 2006, published 2007)
In brackets after ≈: the same amount, converted by molar mass. Read-outs that look alike come from different tables or passages of the source.

What was measured:
[1] = in vivo; cited from earlier work
pH-dependent solubility = type: physicochemical
Description: Although carvedilol's solubility is similarly pH-dependent and varying, it is not obvious from FIG. 1 as it rapidly undergoes in situ salt formation with the buffering agent such as citric, acetic, and hydrochloric acids and consequently, the observed solubility is that of the salt formed in-situ.

[2] = Solubilities of weakly basic drugs in organic acid buffers
[3] = PK modeling (WinNonlin 1-compartment fit, Stella simulation) of 8 mg ondansetron hydrochloride IR tablet plasma data
Experimental: In order to assess the type of in vitro release profile needed to achieve a once-daily plasma concentration profile, a modeling exercise was performed using the pharmacokinetic parameters for ondansetron hydrochloride reported in “Ondansetron Absorption in Adults: Effect of Dosage Form, Food, and Antacids” in Journal of Pharmaceutical Sciences Vol. (1994) by Bozigian et al. Mean plasma concentrations achieved in 24 healthy, adult male volunteers, who received a single 8 mg ondansetron hydrochloride IR tablet in the fasted state, were used using the software program, WinNonlin™ Standard Version 2.1 to fit a 1-compartment first order model with a lag-time assuming first order elimination kinetics.
The primary parameters were then input into another software, Stella Version 6.01 using a previously established model with slight modifications. Different in vitro release profiles were generated, and from target once-daily release profiles, desired in vitro release (medium, target and fast) profiles were generated by deconvolution.

[4] = single 8 mg IR tablet, fasted, 1-compartment model fit
[5] = single 8 mg IR tablet, fasted, secondary parameter

## COc1ccccc1OCCNCC(O)COc1cccc2[nH]c3ccccc3c12 (racemic) [Carvedilol]
pH 2.12
  Solubility (mg/mL) of Carvedilol in Tartaric Acid: 2.51 mg/mL
pH 2.28
  Solubility (mg/mL) of Carvedilol in Tartaric Acid: 1.36 mg/mL
pH 3.64
  Solubility (mg/mL) of Carvedilol in Tartaric Acid: 0.121 mg/mL
pH 5.46
  Solubility (mg/mL) of Carvedilol in Tartaric Acid: 0.105 mg/mL
pH 5.9
  Solubility (mg/mL) of Carvedilol in Tartaric Acid: 0.028 mg/mL

## Cc1nccn1CC1CCc2c(c3ccccc3n2C)C1=O.Cl.O.O (racemic) [Ondansetron Hydrochloride, (±) 1,2,3,9-tetrahydro-9-methyl-3-[(2-methyl-1H-imidazole-1-yl)methyl]-4H-carbazol-4-one monohydrochloride dihydrate]
[1]
  elimination half-life: approximately 3.8±1 hrs
pH-dependent solubility; aqueous buffer, at pH 6.8
  solubility: ~50 µg/mL
pH-dependent solubility; optimal highest dose 16 or 24 mg, pH 6.8
  ratio of optimal highest dose (mg) to the solubility (mg/mL) at pH 6.8: 320
[2]; pH 2.01, aqueous buffer, Solubility of Ondansetron Hydrochloride, fumaric acid 5 mg/mL, start pH 2.13, end pH 2.01
  solubility: 26900 µg/mL
[2]; pH 2.14, aqueous buffer, Solubility of Ondansetron Hydrochloride, fumaric acid 2.5 mg/mL, start pH 2.26, end pH 2.14
  solubility: 27000 µg/mL
[2]; pH 2.4, aqueous buffer, Solubility of Ondansetron Hydrochloride, fumaric acid 1 mg/mL, start pH 2.48, end pH 2.40
  solubility: 26100 µg/mL
[2]; pH 2.75, aqueous buffer, Solubility of Ondansetron Hydrochloride, fumaric acid 0.25 mg/mL, start pH 2.79, end pH 2.75
  solubility: 26200 µg/mL
[2]; pH 3.49, aqueous buffer, Solubility of Ondansetron Hydrochloride, fumaric acid 0.05 mg/mL, start pH 3.19, end pH 3.49
  solubility: 26000 µg/mL
[2]; pH 3.49, aqueous buffer, solubility, buffer containing only 0.05 mg/mL of fumaric acid, unchanged up to 5 mg/mL
  solubility: ~26000 µg/mL
[2]; pH 4.05, aqueous buffer, Solubility of Ondansetron Hydrochloride, fumaric acid 0.01 mg/mL, start pH 3.64, end pH 4.05
  solubility: 26100 µg/mL
[2]; pH 4.33, aqueous buffer, Solubility of Ondansetron Hydrochloride, fumaric acid 0.0025 mg/mL, start pH 4.15, end pH 4.33
  solubility: 26100 µg/mL
[3]; male, human, plasma
  t1/2: 3.65 h
[3]; single 8 mg IR tablet, fasted, 24 healthy adult male volunteers, 1-compartment first order model fit
  Vd: 238.26
[3]; [4]
  Ka: 1.49 per hour
  Ke: 0.19 per hr
  Tlag: 0.41 h
[3]; [5]
  AUC: 170 ng·h/mL
  Cl: 46.06 L/h
  Cm: 0.0248 mg/L
  Tmax: 1.98 h

## O=C1CN=C(c2ccccc2Cl)c2cc([N+](=O)[O-])ccc2N1 [Clonazepam]
[2]; Group C actives
  solubility enhancement by organic acid: less than 3 fold
[2]; pH 2.3, aqueous buffer, solubility, fumaric acid buffer at pH 2.3 (higher acid concentration)
  solubility: ~11.6 µg/mL (≈ 36.7 µM)
[2]; pH 3.2, aqueous buffer, Solubility (mg/mL) of Clonazepam in Fumaric Acid, pH of buffer 3.2
  solubility: 9.6 µg/mL (≈ 30.4 µM)
[2]; pH 3.7, aqueous buffer, Solubility (mg/mL) of Clonazepam in Fumaric Acid, pH of buffer 3.7
  solubility: 9.8 µg/mL (≈ 31 µM)
[2]; pH 4.8, aqueous buffer, Solubility (mg/mL) of Clonazepam in Fumaric Acid, pH of buffer 4.8
  solubility: 9.5 µg/mL (≈ 30.1 µM)
[2]; pH 5.5, aqueous buffer, Solubility (mg/mL) of Clonazepam in Fumaric Acid, pH of buffer 5.5
  solubility: 9.3 µg/mL (≈ 29.5 µM)
[2]; pH 6.2, aqueous buffer, Solubility (mg/mL) of Clonazepam in Fumaric Acid, pH of buffer 6.2
  solubility: 7.2 µg/mL (≈ 22.8 µM)
[2]; pH 6.8, aqueous buffer, Solubility (mg/mL) of Clonazepam in Fumaric Acid, pH of buffer 6.8
  solubility: 6.9 µg/mL (≈ 21.9 µM)
[2]; pH 6.8, aqueous buffer, solubility, fumaric acid buffer at pH 6.8 (lower acid concentration)
  solubility: ~6.9 µg/mL (≈ 21.9 µM)
[2]; pH of buffer 2.3
  Solubility (mg/mL) of Clonazepam in Fumaric Acid: 0.0116 mg/mL
[2]; pH of buffer 2.8
  Solubility (mg/mL) of Clonazepam in Fumaric Acid: 0.0103 mg/mL

## OCCN(CCO)c1nc(N2CCCCC2)c2nc(N(CCO)CCO)nc(N3CCCCC3)c2n1 [Dipyridamole]
physchem; pH 2.98, aqueous buffer
  solubility: 6240 µg/mL (≈ 12400 µM)
physchem; pH 3.42, aqueous buffer
  solubility: 1800 µg/mL (≈ 3570 µM)
physchem; pH 3.68, aqueous buffer
  solubility: 930 µg/mL (≈ 1840 µM)
physchem; pH 3.88, aqueous buffer
  solubility: 650 µg/mL (≈ 1290 µM)
physchem; pH 4.33, aqueous buffer
  solubility: 270 µg/mL (≈ 535 µM)
physchem; pH 4.71, aqueous buffer
  solubility: 130 µg/mL (≈ 258 µM)
physchem; pH 6.28, aqueous buffer
  solubility: 6 µg/mL (≈ 11.9 µM)
pH-dependent solubility; aqueous buffer, at pH 6.8
  solubility: 30 µg/mL (≈ 59.4 µM)
pH-dependent solubility; simulated gastric fluid, in 0.1N HCl
  solubility: ~1000 µg/mL (≈ 1980 µM)

## Nc1nnc(-c2cccc(Cl)c2Cl)c(N)n1 [Lamotrigine]
physchem; pH 2.43, aqueous buffer
  solubility: 4480 µg/mL (≈ 17500 µM)
physchem; pH 3.33, aqueous buffer
  solubility: 1770 µg/mL (≈ 6910 µM)
physchem; pH 4.36, aqueous buffer
  solubility: 1610 µg/mL (≈ 6290 µM)
physchem; pH 4.97, aqueous buffer
  solubility: 488 µg/mL (≈ 1910 µM)
physchem; pH 5.66, aqueous buffer
  solubility: 226 µg/mL (≈ 882 µM)
physchem; pH 5.85, aqueous buffer
  solubility: 197 µg/mL (≈ 769 µM)
physchem; pH 6.5, aqueous buffer
  solubility: 161 µg/mL (≈ 629 µM)
